This note sets out measurements from article PMC7753040, “Discovery of a Potent RIPK3 Inhibitor for the Amelioration of Necroptosis-Associated Inflammatory Injury” (Frontiers in Cell and Developmental Biology, 2020).

Series [1] concerns the target CYP3A4 (Homo sapiens, UniProt P08684). The series can be described thus: Cytochrome P450 inhibition, CYP3A4. The series is classed as in vitro ADME. How it is done: (§1) Cytochrome P450 (CYP) inhibitory potency was determined by industrial standard methods as reported previously ([Dong et al., 2015]). Methods to determine potassium channel hERG inhibition and in vivo pharmacokinetic parameters have been previously published ([Lu et al., 2017]).

The target in series [2] is CYP2C19 (Homo sapiens, UniProt P33261). The series can be described thus: Cytochrome P450 inhibition, CYP2C19. The series is classed as in vitro ADME. How it is done:
as §1

For series [3], the system named is C57BL/6 mice. The series can be described thus: TNF-induced systemic inflammatory response syndrome in mice.
Method: The status of mice was monitored by measuring anal temperature. Mice mortality was continuously monitored till 60 h after TNF-α administration. Blood was collected 4 h post TNF-α challenge and serum was isolated for further examination.
(A,B) The survival rate (A) and body temperature loss (B) were monitored. […] P-values were determined using the ONE-way ANOVA and multi-comparison test for statistics analysis. (C) After 4 h, serum was collected for mouse IL6 level analysis by ELISA. Data are represented as the mean ± standard deviation.
Where [4] appears, read: 5 mg/kg i.p. 15 min before mouse TNF-α 6.5 μg/mouse i.v.

Sequence of CYP3A4 (P08684 whole entry): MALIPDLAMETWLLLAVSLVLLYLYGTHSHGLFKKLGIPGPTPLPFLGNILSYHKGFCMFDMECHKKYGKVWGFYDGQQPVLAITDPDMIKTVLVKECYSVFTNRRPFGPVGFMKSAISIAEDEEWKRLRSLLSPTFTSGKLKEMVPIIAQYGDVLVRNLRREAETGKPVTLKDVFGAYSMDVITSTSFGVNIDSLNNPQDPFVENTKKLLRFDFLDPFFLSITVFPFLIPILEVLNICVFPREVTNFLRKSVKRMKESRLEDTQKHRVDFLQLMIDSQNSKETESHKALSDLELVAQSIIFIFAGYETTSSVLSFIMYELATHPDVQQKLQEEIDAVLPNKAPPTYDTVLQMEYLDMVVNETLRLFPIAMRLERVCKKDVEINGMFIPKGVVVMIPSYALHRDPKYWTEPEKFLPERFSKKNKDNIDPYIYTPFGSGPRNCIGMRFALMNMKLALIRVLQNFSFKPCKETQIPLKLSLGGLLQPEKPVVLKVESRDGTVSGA
Sequence of CYP2C19 (P33261 whole entry): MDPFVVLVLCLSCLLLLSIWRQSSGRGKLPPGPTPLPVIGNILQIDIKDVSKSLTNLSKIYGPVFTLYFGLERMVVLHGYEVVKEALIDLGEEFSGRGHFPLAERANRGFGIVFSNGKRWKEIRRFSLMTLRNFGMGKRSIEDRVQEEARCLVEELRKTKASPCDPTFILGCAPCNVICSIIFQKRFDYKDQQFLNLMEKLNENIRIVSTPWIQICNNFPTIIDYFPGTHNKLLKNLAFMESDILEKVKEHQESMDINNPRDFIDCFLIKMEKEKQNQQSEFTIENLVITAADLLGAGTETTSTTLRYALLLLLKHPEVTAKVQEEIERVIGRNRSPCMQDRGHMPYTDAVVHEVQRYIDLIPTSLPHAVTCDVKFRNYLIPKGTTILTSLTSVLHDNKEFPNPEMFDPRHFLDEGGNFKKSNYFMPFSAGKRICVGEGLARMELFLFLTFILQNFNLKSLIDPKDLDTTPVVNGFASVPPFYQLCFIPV

As for `O=S1(=O)C=C(C2CC2)c2cc3nccc(Nc4ccc5scnc5c4)c3cc21` [Zharp-99], in series [1] (10 μM), the “% of CYP inhibiton CYP3A4” value is on record as “did not inhibit”. Further, the inhibition at 10 µM in series [1] (human, read-out: % of CYP inhibiton CYP3A4) was 5.04%; in series [2] (human, read-out: % of CYP inhibiton 2C19), 4.15%. The “% of CYP inhibiton 2C19” value in series [2] (10 μM) is on record as “did not inhibit”. Moreover, the TNFα-induced temperature loss entry in series [3] (setting [4]) is listed as “ameliorated”. Moreover, the “protection against TNFα-induced lethal shock (survival)” value in series [3] (setting [4]) was “significantly protected”. For the same compound, the “TNFα-induced production of IL-6 in the serum” value in series [3] (5 mg/kg i.p., serum 4 h post TNF-α, ELISA) was “reduced”.
